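Exposure lasted 48 hours, with cells grown in 96-well plates and compounds tested at five concentrations. At the TGI there is no net growth.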
How the values were obtained:
Experiment in all cases: NCI-60 cell line screen, 48 h
786-0 renal = test system: 786-0 renal
A498 renal = test system: A498 renal
A549 NSCLC = test system: A549 NSCLC
ACHN renal = test system: ACHN renal
CCRF-CEM leukemia = test system: CCRF-CEM leukemia
COLO 205 colon = test system: COLO 205 colon
DLD-1 colon = test system: DLD-1 colon
DMS 114 small cell lung = test system: DMS 114 small cell lung
DMS 273 small cell lung = test system: DMS 273 small cell lung
EKVX NSCLC = test system: EKVX NSCLC
HCT-116 colon = test system: HCT-116 colon
HCT-15 colon = test system: HCT-15 colon
HL-60(TB) leukemia = test system: HL-60(TB) leukemia
HOP-62 NSCLC = test system: HOP-62 NSCLC
HOP-92 NSCLC = test system: HOP-92 NSCLC
HT29 colon = test system: HT29 colon
IGROV1 ovarian = test system: IGROV1 ovarian
K-562 leukemia = test system: K-562 leukemia
KM12 colon = test system: KM12 colon
KM20L2 colon = test system: KM20L2 colon
LOX IMVI melanoma = test system: LOX IMVI melanoma
LXFL 529 NSCLC = test system: LXFL 529 NSCLC
M14 melanoma = test system: M14 melanoma
M19-MEL melanoma = test system: M19-MEL melanoma
MOLT-4 leukemia = test system: MOLT-4 leukemia
NCI-H226 lung = test system: NCI-H226 lung
NCI-H23 lung = test system: NCI-H23 lung
NCI-H460 lung = test system: NCI-H460 lung
NCI-H522 lung = test system: NCI-H522 lung
OVCAR-3 ovarian = test system: OVCAR-3 ovarian
OVCAR-4 ovarian = test system: OVCAR-4 ovarian
OVCAR-5 ovarian = test system: OVCAR-5 ovarian
OVCAR-8 ovarian = test system: OVCAR-8 ovarian
RPMI-8226 leukemia = test system: RPMI-8226 leukemia
RXF 393 renal = test system: RXF 393 renal
SF-268 CNS = test system: SF-268 CNS
SF-295 CNS = test system: SF-295 CNS
SF-539 CNS = test system: SF-539 CNS
SK-MEL-2 melanoma = test system: SK-MEL-2 melanoma
SK-MEL-28 melanoma = test system: SK-MEL-28 melanoma
SK-MEL-5 melanoma = test system: SK-MEL-5 melanoma
SK-OV-3 ovarian = test system: SK-OV-3 ovarian
SN12C renal = test system: SN12C renal
SNB-19 CNS = test system: SNB-19 CNS
SNB-75 CNS = test system: SNB-75 CNS
SNB-78 CNS = test system: SNB-78 CNS
SW-620 colon = test system: SW-620 colon
TK-10 renal = test system: TK-10 renal
U251 CNS = test system: U251 CNS
UACC-62 melanoma = test system: UACC-62 melanoma
UO-31 renal = test system: UO-31 renal
XF 498 CNS = test system: XF 498 CNS
HCC-2998 colon = test system: HCC-2998 colon
MALME-3M melanoma = test system: MALME-3M melanoma
SR leukemia = test system: SR leukemia
UACC-257 melanoma = test system: UACC-257 melanoma

Q: Which TGI (786-0 renal) does the source give for `COc1ccc(C(=O)O)c(Br)c1OCc1ccccc1` here?
A: > 100 µM

Q: And the TGI (A498 renal)?
A: > 100 µM

Q: What about the TGI (A549 NSCLC) of the same compound?
A: > 100 µM

Q: What about the TGI (ACHN renal) of the same compound?
A: > 100 µM

Q: What about the TGI (CCRF-CEM leukemia) of the same compound?
A: > 100 µM

Q: What about the TGI (COLO 205 colon) of the same compound?
A: > 100 µM

Q: And the TGI (DLD-1 colon)?
A: > 100 µM

Q: And the TGI (DMS 114 small cell lung)?
A: > 100 µM

Q: And the TGI (DMS 273 small cell lung)?
A: > 100 µM

Q: What about the TGI (EKVX NSCLC) of the same compound?
A: > 100 µM

Q: What about the TGI (HCT-116 colon) of the same compound?
A: > 100 µM

Q: What about the TGI (HCT-15 colon) of the same compound?
A: > 100 µM

Q: What about the TGI (HL-60(TB) leukemia) of the same compound?
A: > 100 µM

Q: And the TGI (HOP-62 NSCLC)?
A: > 100 µM

Q: What about the TGI (HOP-92 NSCLC) of the same compound?
A: > 100 µM

Q: What about the TGI (HT29 colon) of the same compound?
A: > 100 µM

Q: What about the TGI (IGROV1 ovarian) of the same compound?
A: > 100 µM

Q: What about the TGI (K-562 leukemia) of the same compound?
A: > 100 µM

Q: What about the TGI (KM12 colon) of the same compound?
A: > 100 µM

Q: What about the TGI (KM20L2 colon) of the same compound?
A: > 100 µM

Q: And the TGI (LOX IMVI melanoma)?
A: > 100 µM

Q: And the TGI (LXFL 529 NSCLC)?
A: > 100 µM

Q: And the TGI (M14 melanoma)?
A: > 100 µM

Q: And the TGI (M19-MEL melanoma)?
A: > 100 µM

Q: What about the TGI (MOLT-4 leukemia) of the same compound?
A: > 100 µM

Q: What about the TGI (NCI-H226 lung) of the same compound?
A: > 100 µM

Q: And the TGI (NCI-H23 lung)?
A: > 100 µM

Q: And the TGI (NCI-H460 lung)?
A: > 100 µM

Q: And the TGI (NCI-H522 lung)?
A: > 100 µM

Q: And the TGI (OVCAR-3 ovarian)?
A: > 100 µM

Q: What about the TGI (OVCAR-4 ovarian) of the same compound?
A: > 100 µM

Q: What about the TGI (OVCAR-5 ovarian) of the same compound?
A: > 100 µM

Q: And the TGI (OVCAR-8 ovarian)?
A: > 100 µM

Q: And the TGI (RPMI-8226 leukemia)?
A: > 100 µM

Q: What about the TGI (RXF 393 renal) of the same compound?
A: > 100 µM

Q: What about the TGI (SF-268 CNS) of the same compound?
A: > 100 µM

Q: And the TGI (SF-295 CNS)?
A: > 100 µM

Q: What about the TGI (SF-539 CNS) of the same compound?
A: > 100 µM

Q: What about the TGI (SK-MEL-2 melanoma) of the same compound?
A: > 100 µM

Q: What about the TGI (SK-MEL-28 melanoma) of the same compound?
A: > 100 µM

Q: What about the TGI (SK-MEL-5 melanoma) of the same compound?
A: > 100 µM

Q: What about the TGI (SK-OV-3 ovarian) of the same compound?
A: > 100 µM

Q: What about the TGI (SN12C renal) of the same compound?
A: > 100 µM

Q: What about the TGI (SNB-19 CNS) of the same compound?
A: > 100 µM

Q: What about the TGI (SNB-75 CNS) of the same compound?
A: > 100 µM

Q: And the TGI (SNB-78 CNS)?
A: > 100 µM

Q: And the TGI (SW-620 colon)?
A: > 100 µM

Q: What about the TGI (TK-10 renal) of the same compound?
A: > 100 µM

Q: What about the TGI (U251 CNS) of the same compound?
A: > 100 µM

Q: What about the TGI (UACC-62 melanoma) of the same compound?
A: > 100 µM

Q: And the TGI (UO-31 renal)?
A: > 100 µM

Q: What about the TGI (XF 498 CNS) of the same compound?
A: > 100 µM

Q: `CC(C)(C)C1=Nc2c(Br)cc(C(C)(C)C)cc2C(C(F)(F)F)(C(F)(F)F)O1` was tested. Which TGI (786-0 renal) did it give?
A: > 100 µM

Q: What about the TGI (A549 NSCLC) of the same compound?
A: > 100 µM

Q: And the TGI (ACHN renal)?
A: > 100 µM

Q: What about the TGI (CCRF-CEM leukemia) of the same compound?
A: > 100 µM

Q: What about the TGI (COLO 205 colon) of the same compound?
A: > 100 µM

Q: What about the TGI (DLD-1 colon) of the same compound?
A: > 100 µM

Q: And the TGI (DMS 114 small cell lung)?
A: 86.3 µM

Q: And the TGI (DMS 273 small cell lung)?
A: > 100 µM

Q: And the TGI (EKVX NSCLC)?
A: > 100 µM

Q: And the TGI (HCC-2998 colon)?
A: 65.1 µM

Q: What about the TGI (HCT-116 colon) of the same compound?
A: > 100 µM

Q: And the TGI (HCT-15 colon)?
A: > 100 µM

Q: And the TGI (HL-60(TB) leukemia)?
A: 47.4 µM

Q: And the TGI (HOP-62 NSCLC)?
A: > 100 µM

Q: And the TGI (HT29 colon)?
A: > 100 µM

Q: And the TGI (IGROV1 ovarian)?
A: > 100 µM

Q: What about the TGI (K-562 leukemia) of the same compound?
A: > 100 µM

Q: What about the TGI (KM12 colon) of the same compound?
A: > 100 µM

Q: What about the TGI (KM20L2 colon) of the same compound?
A: > 100 µM

Q: And the TGI (LOX IMVI melanoma)?
A: 31.3 µM

Q: And the TGI (LXFL 529 NSCLC)?
A: > 100 µM

Q: And the TGI (M14 melanoma)?
A: > 100 µM

Q: And the TGI (M19-MEL melanoma)?
A: > 100 µM

Q: And the TGI (MALME-3M melanoma)?
A: > 100 µM

Q: And the TGI (MOLT-4 leukemia)?
A: > 100 µM

Q: And the TGI (NCI-H23 lung)?
A: > 100 µM

Q: And the TGI (NCI-H460 lung)?
A: > 100 µM

Q: What about the TGI (NCI-H522 lung) of the same compound?
A: > 100 µM

Q: What about the TGI (OVCAR-3 ovarian) of the same compound?
A: 37 µM

Q: What about the TGI (OVCAR-4 ovarian) of the same compound?
A: > 100 µM

Q: What about the TGI (OVCAR-5 ovarian) of the same compound?
A: > 100 µM

Q: And the TGI (OVCAR-8 ovarian)?
A: > 100 µM

Q: What about the TGI (RPMI-8226 leukemia) of the same compound?
A: 66.3 µM

Q: What about the TGI (RXF 393 renal) of the same compound?
A: 43.5 µM

Q: What about the TGI (SF-295 CNS) of the same compound?
A: > 100 µM

Q: What about the TGI (SF-539 CNS) of the same compound?
A: > 100 µM

Q: What about the TGI (SK-MEL-2 melanoma) of the same compound?
A: > 100 µM

Q: And the TGI (SK-MEL-28 melanoma)?
A: > 100 µM

Q: And the TGI (SK-MEL-5 melanoma)?
A: > 100 µM

Q: And the TGI (SK-OV-3 ovarian)?
A: > 100 µM

Q: What about the TGI (SN12C renal) of the same compound?
A: > 100 µM

Q: What about the TGI (SNB-19 CNS) of the same compound?
A: > 100 µM

Q: And the TGI (SNB-75 CNS)?
A: > 100 µM

Q: What about the TGI (SNB-78 CNS) of the same compound?
A: > 100 µM

Q: What about the TGI (SR leukemia) of the same compound?
A: > 100 µM

Q: What about the TGI (SW-620 colon) of the same compound?
A: > 100 µM

Q: What about the TGI (TK-10 renal) of the same compound?
A: > 100 µM

Q: What about the TGI (U251 CNS) of the same compound?
A: 44.7 µM

Q: And the TGI (UACC-257 melanoma)?
A: > 100 µM

Q: And the TGI (UACC-62 melanoma)?
A: > 100 µM

Q: And the TGI (UO-31 renal)?
A: > 100 µM

Q: What about the TGI (XF 498 CNS) of the same compound?
A: 59.4 µM
